Earlier results as cited in US5010056A, “Pharmaceutical composition for intranasal administration, comprising GH-releasing hormone, a cholinergic agonist and optionally a bile salt” (priority 1987, dated 1991).
Where two headings read alike, the source gives them in different places.

Columns and labels:
GH secretion = conditions: previous administration of an oral dose
[1] = orally administered

CN(C)C(=O)Oc1ccc[n+](C)c1 [pyridostigmine]
effect on GH secretion and on the effect of intravenously injected GHRH (GH secretion): able to stimulate GH secretion and significantly increase the effect of intravenously injected GHRH | bioavailability [1]: low

GH-releasing hormone [GHRH]
bioavailability (nasal administration): low | doses required nasally to obtain comparable effects, relative to parenteral doses (nasal versus parenteral administration): 300-1000 times the parenteral doses
